Holding throughout (format): cell-based
In data set [1] the test system is S. aureus F-3095. Briefly: Susceptibility test 1: MIC by micro-dilution method. The conditions noted are these: Staphylococcus aureus. The procedure:
(§1) Test substances were initially dissolved in dimethylsulfoxide. Antibacterial activities (MICs) of the same compounds were determined by the micro-dilution method as recommended by the Japanese Society of Chemotherapy.
(§2) The bacteria cultured on Mueller-Hinton agar (MHA) plates at 35° C. overnight were suspended in sterile physiological saline in a concentration that was equivalent to 0.5 McFarland. The bacterial inoculum was prepared by 10-fold dilution of this suspension. Approximately 0.005 mL of the bacterial inoculum was inoculated into Cation-adjusted Mueller-Hinton broth (CAMHB, 100 μL/well) containing the test substance and was incubated at 35° C. overnight. The lowest concentration of the test substance at which no bacterial growth was macroscopically observed was determined as the MIC.

Data set [2] has as its system S. aureus FDA209P. The description is as above. The settings on record: Staphylococcus aureus, read-out: MIC (μg/mL) S. aureus FDA209P. How it is done:
as §1, §2

A short description of data set [3]: Cytotoxicity test (XTT). The conditions noted are these: African green monkey, vero cells, 3 days incubation, absorbance 450 nm, read-out: CC50 (concentration when cell proliferation was inhibited by 50%). How it is done: Each test substance was dissolved in dimethyl sulfoxide and was prepared to each concentration with E-MEM containing 10% FBS, and then 0.1 mL of this solution was dispensed into each well of a 96-well microplate. A vero cell suspension containing 3×10^4 cells/mL was prepared with E-MEM containing 10% FBS, and 0.1 mL of the suspension was inoculated to each well. After incubation in 5% CO2 at 37° C. for 3 days, 50 μL of E-MEM containing 1 mg/mL of 2,3-bis-(2-methoxy-4-nitro-5-sulfophenyl)-5-[(phenylamino)carbonyl]-2H-tetrazolium, inner salt, monosodium salt (XTT) and 25 μM of phenazine methosulfate (PMS) was added to each well. After about 2 hours, the absorbance at 450 nm was measured with a microplate reader.
The absorbance ratio of each well supplied with the test substance and the control not containing the test substance was calculated, and the concentration of each compound when cell proliferation was inhibited by 50% (CC50; μg/mL) was calculated.

Where [4] appears, read: F3095, read-out: MIC (μg/mL) S. aureus F-3095.
Setting [5] is: F3095, F-3095 (MDRSA), CAMHB, 35° C. overnight, lowest concentration with no macroscopic growth, read-out: MIC (μg/mL) S. aureus F-3095.
The mark [6] stands for this setting: CAMHB, 35° C. overnight, lowest concentration with no macroscopic growth.

In brackets after ≈: the same amount, converted by molar mass. Where a name gives a salt, the structure may show the parent alone. Read-outs that look alike come from different tables or passages of the source.

Take `COc1cnc2ccc(=O)n(CCN3CCC(NCc4cc5c(cn4)OCCO5)[C@H](O)C3)c2c1` (stereo in doubt) [Example 95, 1-(2-((3R,4R)-4-((2,3-dihydro(1,4)dioxino(2,3-c)pyridin-7-ylmethyl)amino)-3-hydroxypiperidin-1-yl)ethyl)-7-methoxy-1,5-naphthyridin-2(1H)-one]: the values for the MIC in data set [1] (setting [4]) and in data set [2] were 0.0625 µg/mL (≈ 0.134 µM) and 0.0313 µg/mL (≈ 0.0669 µM), respectively. Also, the CC50 at 3 days in data set [3] is at least 51.2 µg/mL.

`Cc1ccc(CNC2CCN(CCn3c(=O)ccc4ccncc43)CC2)cc1F` [Example 8, 1-(2-(4-((3-fluoro-4-methylbenzyl)amino)piperidin-1-yl)ethyl)-1,7-naphthyridin-2(1H)-one hydrochloride]: the MIC in data set [1] (setting [4]) and in data set [2] was 0.0313 µg/mL throughout. Further, in data set [3], the CC50 at 3 days is at least 51.2 µg/mL.

Regarding `COc1ccc2ncc(=O)n(CCN3CCC(NCc4cc5c(cn4)OCCO5)CC3)c2n1` [Example 10, 4-(2-(4-((2,3-dihydro(1,4)dioxino(2,3-c)pyridin-7-ylmethyl)amino)piperidin-1-yl)ethyl)-6-methoxypyrido(2,3-b)pyrazin-3(4H)-one hydrochloride], the MIC in data set [1] (setting [4]) and in data set [2] was 0.0156 µg/mL each time. In addition, the CC50 at 3 days in data set [3] is at least 51.2 µg/mL.

Take `COc1cnc2ccc(=O)n(CCN3CCC(NCc4ccc(C)c(F)c4)CC3)c2c1` [Example 17, 1-(2-(4-((3-fluoro-4-methylbenzyl)amino)piperidin-1-yl)ethyl)-7-methoxy-1,5-naphthyridin-2(1H)-one hydrochloride]: the values for the MIC in data set [1] (setting [4]) and in data set [2] were 0.0313 µg/mL and 0.0039 µg/mL, respectively.

On to `O=C1CSc2cc(Cl)c(CNC3CCN(CCn4c(=O)ccc5ccncc54)CC3)nc2N1` [Example 30, 7-chloro-6-(((1-(2-(2-oxo-1,7-naphthyridin-1(2H)-yl)ethyl)piperidin-4-yl)amino)methyl)-2H-pyrido(3,2-b)(1,4)thiazin-3(4H)-one], for which the MIC in data set [1] (setting [5]) and in data set [2] (setting [6]) was 0.0313 µg/mL (≈ 0.0645 µM) in each case. For the same compound, the CC50 at 3 days in data set [3] was at least 51.2 µg/mL.

`O=C1CSc2ccc(CNC3CCN(CCn4c(=O)ccc5ccncc54)CC3)nc2N1` [Example 33, 6-(((1-(2-(2-oxo-1,7-naphthyridin-1(2H)-yl)ethyl)piperidin-4-yl)amino)methyl)-2H-pyrido(3,2-b)(1,4)thiazin-3(4H)-one]: the MIC in data set [1] (setting [5]) and in data set [2] (setting [6]) was 0.0313 µg/mL (≈ 0.0695 µM) each time. For the same compound, the CC50 at 3 days in data set [3] is at least 51.2 µg/mL.

`O=c1ccc2ccncc2n1CCN1CCC(NCc2cc(-c3cccs3)on2)CC1` [Example 35, 1-(2-(4-(((5-(2-thienyl)isoxazol-3-yl)methyl)amino)piperidin-1-yl)ethyl)-1,7-naphthyridin-2(1H)-one hydrochloride]: the MIC in data set [1] (setting [4]) and in data set [2] was 0.0313 µg/mL throughout. In addition, the CC50 at 3 days in data set [3] is at least 51.2 µg/mL.

In the case of `COc1ccc2ccc(=O)n(CCN3CCC(NCc4ccc5c(c4)OCCO5)CC3)c2n1` [Example 44, 1-(2-(4-((2,3-dihydro-1,4-benzodioxin-6-ylmethyl)amino)piperidin-1-yl)ethyl)-7-methoxy-1,8-naphthyridin-2(1H)-one hydrochloride], the MIC in data set [1] (setting [4]) and in data set [2] was 0.0313 µg/mL in each case.

For `COc1ccc2ccc(=O)n(CCN3CCC(NCc4cc5c(cn4)OCCO5)CC3)c2n1` [Example 45, 1-(2-(4-((2,3-dihydro(1,4)dioxino(2,3-c)pyridin-7-ylmethyl)amino)piperidin-1-yl)ethyl)-7-methoxy-1,8-naphthyridin-2(1H)-one hydrochloride], the MIC stood at 0.0625 µg/mL in data set [1] (setting [4]) and 0.0313 µg/mL in data set [2].

Take `COc1cnc2ccc(=O)n(CCN3CCC(NCc4cc5c(cn4)OCCCO5)CC3)c2c1` [Example 118, 1-(2-(4-((3,4-dihydro-2H-(1,4)dioxepino(2,3-c)pyridin-8-ylmethyl)amino)piperidin-1-yl)ethyl)-7-methoxy-1,5-naphthyridin-2(1H)-one hydrochloride]: the MIC in data set [1] (setting [4]) and in data set [2] was 0.0625 µg/mL in each case.

Regarding `CCc1ccc(CNC2CCN(CCn3c(=O)ccc4ncc(OC)cc43)CC2)nc1` [Example 123, 1-(2-(4-(((5-ethylpyridin-2-yl)methyl)amino)piperidin-1-yl)ethyl)-7-methoxy-1,5-naphthyridin-2(1H)-one hydrochloride], the MIC in data set [1] (setting [4]) is 0.125 µg/mL; in data set [2], 0.0313 µg/mL.

For the compound `COc1cnc2ccc(=O)n(CCN3CCC(NCc4cc(-c5ccsc5)on4)CC3)c2c1` [Example 133, 7-methoxy-1-(2-(4-(((5-(3-thienyl)isoxazol-3-yl)methyl)amino)piperidin-1-yl)ethyl)-1,5-naphthyridin-2(1H)-one], the MIC in data set [1] (setting [5]) stood at 0.0156 µg/mL (≈ 0.0335 µM); in data set [2] (setting [6]), 0.0078 µg/mL (≈ 0.0168 µM).

With `CCc1ncc(CNC2CCN(CCn3c(=O)ccc4ncc(OC)cc43)CC2)cc1F` [Example 137, 1-(2-(4-(((6-ethyl-5-fluoropyridin-3-yl)methyl)amino)piperidin-1-yl)ethyl)-7-methoxy-1,5-naphthyridin-2(1H)-one hydrochloride], the values for the MIC in data set [1] (setting [4]) and in data set [2] were 0.0625 µg/mL and 0.0313 µg/mL, respectively.

With `COc1cnc2ccc(=O)n(CCN3CCC(NCc4cncc(-c5cccs5)c4)CC3)c2c1` [Example 141, 7-methoxy-1-(2-(4-(((5-(2-thienyl)pyridin-3-yl)methyl)amino)piperidin-1-yl)ethyl)-1,5-naphthyridin-2(1H)-one hydrochloride], the MIC in data set [1] (setting [4]) and in data set [2] was 0.0313 µg/mL throughout.

`O=c1ccc2ncc(F)cc2n1CCN1CCC(NCc2cc(-c3ccco3)on2)CC1` [Example 143, 7-fluoro-1-(2-(4-(((5-(2-furyl)isoxazol-3-yl)methyl)amino)piperidin-1-yl)ethyl)-1,5-naphthyridin-2(1H)-one]: the MIC in data set [1] (setting [5]) and in data set [2] (setting [6]) was 0.0313 µg/mL (≈ 0.0715 µM) in each case.

`COc1cnc2ccc(=O)n(CCN3CCC(NCc4cc5c(cn4)OCCC5)CC3)c2c1` [Example 144, 1-(2-(4-((3,4-dihydro-2H-pyrano(2,3-c)pyridin-6-ylmethyl)amino)piperidin-1-yl)ethyl)-7-methoxy-1,5-naphthyridin-2(1H)-one hydrochloride]: the MIC in data set [1] (setting [4]) and in data set [2] was 0.0313 µg/mL in each case.

In the case of `Cc1cc(=O)n(CCN2CCC(NCc3cc4c(cn3)OCCO4)CC2)c2cc(F)cnc12` [Example 146, 1-(2-(4-((2,3-dihydro(1,4)dioxino(2,3-c)pyridin-7-ylmethyl)amino)piperidin-1-yl)ethyl)-7-fluoro-4-methyl-1,5-naphthyridin-2(1H)-one hydrochloride], the MIC in data set [1] (setting [4]) and in data set [2] was 0.0625 µg/mL throughout.

As to `COc1cnc2ccc(=O)n(CCN3CCC(NCc4cncc(-c5ccco5)c4)CC3)c2c1` [Example 147, 1-(2-(4-(((5-(2-furyl)pyridin-3-yl)methyl)amino)piperidin-1-yl)ethyl)-7-methoxy-1,5-naphthyridin-2(1H)-one], the MIC in data set [1] (setting [5]) turned out to be 0.0625 µg/mL (≈ 0.136 µM); in data set [2] (setting [6]), 0.0313 µg/mL (≈ 0.0681 µM).

In the case of `O=c1ccc2ncc(F)cc2n1CCN1CCC(NCc2cc3c(cn2)CCCO3)CC1` [Example 162, 1-(2-(4-((3,4-dihydro-2H-pyrano(3,2-c)pyridin-7-ylmethyl)amino)piperidin-1-yl)ethyl)-7-fluoro-1,5-naphthyridin-2(1H)-one hydrochloride], the MIC worked out at 0.0625 µg/mL in data set [1] (setting [4]) and 0.0313 µg/mL in data set [2].

Source of the values: patent US8367831B2, “Heterocyclic compound or salt thereof and intermediate thereof” (priority 2006, dated 2013).
